Results: patent publication US11504368B2, “2,6-diamino-3,4-dihydropyrimidin-4-one derivatives and use thereof in therapy” (THOMAS HELLEDAYS STIFTELSE FÖR MEDICINSK FORSKNING, priority 2018, dated 2022)

Legend:
MTHFD2 [1] = molecular target: T1, MTHFD2 (Homo sapiens (Human), UniProt P13995); assay: Inhibition of MTHFD2 (NAD(P)H-Glo luminescence); format: biochemical; conditions: 3.4 nmol/L MTHFD2, 5 μmol/L folitixorin, 250 μmol/L NAD+; mean of at least 3 independent measurements
Experimental: DMSO was used as negative control. The serial dilution in DMSO, from compound DMSO stock solution, was created by dispensing from a 384-well low dead volume microplate (LP-0200, Labcyte) and a 384-well polypropylene microplate 2.0 (PP-0200, Labcyte). A total of 2.5 μL MTHFD2 was preincubated with compound or DMSO for 10 min. The enzymatic reaction was initiated by adding 2.5 μL folitixorin (F680350, Toronto Research Chemicals). For background control, 5 μL buffer was added to the well. […] The final concentrations of all reagents in a total assay volume of 5 μL per well were 50 mmol/L Tris-HCl at pH 8.0, 100 mmol/L NaCl, 5 mmol/L MgCl2, 25 mmol/L Na3PO4 at pH 8.0, 0.005% (v/v) Tween-20, and 2 mmol/L 2-mercaptoethanol. After 15 min reaction time, 5 μL NAD(P)H-Glo detection reagent (G9061 or G9062, Promega) was dispensed in all wells and the plate was incubated for 60 min. Luminescence was measured on a plate reader (Envision, PerkinElmer or Sense, Hidex). The light signal produced is proportional to the amount of NAD(P)H in the sample. IC50 values were determined by fitting a four parameter sigmoidal curve model using XLfit (IDBS). Reported IC50 values are the mean of at least 3 independent measurements.

HL-60 cells = assay: Cancer cell viability assay (HL-60, resazurin); format: cell-based; conditions: Homo sapiens, 96 h, mean of at least 3 independent measurements, read-out: HL60 cell proliferation inhibition EC50
Experimental: HL-60 cells (human promyelocytic leukemia cells) were seeded in a 384-well plate at a density of 2,000 cells per well in 50 μL induction medium and treated with vehicle (DMSO) or an 11-point concentration range with 3-fold dilution in concentration of compound. Each assay point was run in duplicate. Wells without cells but with DMSO were used as negative controls. The cells were left to proliferate over a period of 96 h, in an incubator at 37° C. and 5% CO2, followed by an addition of 10 μL […] resazurin sodium salt (199303, Sigma-Aldrich) dissolved in DPBS (14190, Gibco). After 4 h of incubation at 37° C. and 5% CO2, the fluorescent signal was measured using an excitation wavelength of 544 nm and an emission wavelength of 595 nm in a Hidex Sense plate reader. Cell plates were incubated in boxes with damp paper tissues to avoid evaporation. All additions, except compound and DMSO, were done using the Multidrop Combi (Thermo Fisher Scientific). DMSO and compounds were pre-dispensed with an Echo 550 Liquid handler (Labcyte) in black, clear bottom, TC-treated and sterile 384-well plates (3764, Corning). Growth medium consisted of RPMI 1640 GlutaMAX (61870, Gibco), 10% (v/v) FBS (10500, Gibco), and 1% (v/v) P/S (15070, Gibco). Induction medium consisted of RPMI 1640 GlutaMAX (61870, Gibco), 5% (v/v) FBS (10500, Gibco), and 1% (v/v) P/S (15070, Gibco). EC50 values were determined by fitting a four parameter sigmoidal curve model using XLfit (IDBS). Reported EC50 values are the mean of at least 3 independent measurements.

[2] = system: colorectal cancer patient-derived xenograft; conditions: colorectal cancer patient-derived xenograft mouse models; Ju et al. (2019); cited from earlier work
MTHFD2 [3] = molecular target: T1, MTHFD2; conditions: Fu et al. Nat. Commun. (2017); cited from earlier work

T1 sequence (P13995 36-350): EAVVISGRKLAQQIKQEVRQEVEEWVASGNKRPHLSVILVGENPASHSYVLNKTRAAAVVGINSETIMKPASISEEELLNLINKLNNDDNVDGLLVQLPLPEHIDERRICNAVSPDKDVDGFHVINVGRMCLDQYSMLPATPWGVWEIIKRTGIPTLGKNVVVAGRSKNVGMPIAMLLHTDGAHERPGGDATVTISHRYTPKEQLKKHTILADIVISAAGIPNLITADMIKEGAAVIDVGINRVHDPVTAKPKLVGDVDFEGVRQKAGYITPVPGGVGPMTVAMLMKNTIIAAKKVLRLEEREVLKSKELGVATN

Row | Structure (SMILES) | IC50 (MTHFD2 [1]) [nM] | EC50 (HL-60 cells) [nM] | tumor growth [2] | tumor weight [2] | inhibitor of human MTHFD2 (MTHFD2 [3])
1 | Nc1nc(N)c(CC(=O)Nc2ccc(C(=O)N[C@@H](CCC(=O)N[C@@H](CCC(=O)O)C(=O)O)C(=O)O)nc2)c(=O)[nH]1 [Example 28, (2S)-2-[(4S)-4-carboxy-4-({5-[2-(2,4-diamino-6-oxo-1,6-dihydropyrimidin-5-yl)acetamido]pyridin-2-yl}formamido)butanamido]pentanedioic acid] | 92 | 22 |  |  | 
2 | Nc1nc(N)c(CC(=O)Nc2ccc(C(=O)N[C@@H](Cc3ccccc3)C(=O)O)nc2)c(=O)[nH]1 [Example 8, (2S)-2-({5-[2-(2,4-diamino-6-oxo-1,6-dihydropyrimidin-5-yl)acetamido]pyridin-2-yl}formamido)-3-phenylpropanoic acid] | 312 | 62 |  |  | 
3 | CC(C)[C@H](NC(=O)c1ccc(NC(=O)Cc2c(N)nc(N)[nH]c2=O)cn1)C(=O)O [Example 13, (2S)-2-({5-[2-(2,4-diamino-6-oxo-1,6-dihydropyrimidin-5-yl)acetamido]pyridin-2-yl}formamido)-3-methylbutanoic acid] | 103 | 215 |  |  | 
4 | Nc1nc(N)c(CC(=O)Nc2cnc(C(=O)N[C@@H](CCC(=O)O)C(=O)O)c(Cl)c2)c(=O)[nH]1 [Example 19, (2S)-2-((3-chloro-5-[2-(2,4-diamino-6-oxo-1,6-dihydropyrimidin-5-yl)acetamido]pyridin-2-yl)formamido)pentanedioic acid] | 72 | 8 |  |  | 
5 | C=Cc1nc(C(=O)N[C@@H](CCC(=O)O)C(=O)O)ccc1NC(=O)Cc1c(N)nc(N)[nH]c1=O [Example 21, (2S)-2-((5-[2-(2,4-diamino-6-oxo-1,6-dihydropyrimidin-5-yl)acetamido]-6-ethenylpyridin-2-yl)formamido)pentanedioic acid] | 298 | 8620 |  |  | 
6 | Nc1nc2c(c(=O)[nH]1)N1C(=O)N(c3ccc(C(=O)N[C@@H](CCC(=O)O)C(=O)O)cc3)CC1CN2 (stereo partly shown) [LY345899] |  |  | statistically significantly suppresses tumor growth | decreases tumor weight | 
7 | CO[C@H](CC(=O)O)[C@@H](C)C(=O)[C@H](C)/C=C(\C)[C@H]1OC(=O)[C@H](O)[C@H](O)/C=C/[C@H](C)CCC[C@@H]1C [carolacton] |  |  |  |  | nanomolar inhibitor
8 | Nc1nc(N)c(CC(=O)Nc2cnc(C(=O)N[C@@H](Cc3ccccc3)C(=O)O)c(F)c2)c(=O)[nH]1 [Example 33, (2S)-2-((5-[2-(2,4-diamino-6-oxo-1,6-dihydropyrimidin-5-yl)acetamido]-3-fluoropyridin-2-yl)formamido)-3-phenylpropanoic acid] | 92 | 24 |  |  | 
9 | Nc1nc(N)c(NC(=O)Nc2ccc(C(=O)N[C@@H](CCCC(=O)O)C(=O)O)nc2)c(=O)[nH]1 [Example 17, (2S)-2-[(5-{[(2,4-diamino-6-oxo-1,6-dihydropyrimidin-5-yl)carbamoyl]amino}pyridin-2-yl)formamido]hexanedioic acid] | 32 | 200 |  |  | 
10 | Nc1nc(N)c(CC(=O)Nc2ccc(C(=O)N[C@@H](CCC(=O)O)C(=O)O)nc2-c2ccccc2)c(=O)[nH]1 [Example 27, (2S)-2-((5-[2-(2,4-diamino-6-oxo-1,6-dihydropyrimidin-5-yl)acetamido]-6-phenylpyridin-2-yl)formamido)pentanedioic acid] | 65 | 2770 |  |  | 

More lines, main results first:

Row | IC50 (MTHFD2 [1]) [nM] | EC50 (HL-60 cells) [nM] | Structure (SMILES) | tumor growth [2] | tumor weight [2] | inhibitor of human MTHFD2 (MTHFD2 [3])
11 | 14 | 6190 | Nc1nc(N)c(CC(=O)Nc2ccc(C(=O)N[C@@H](CCC(=O)O)C(=O)O)nc2Oc2ccccc2)c(=O)[nH]1 [Example 26, (2S)-2-((5-[2-(2,4-diamino-6-oxo-1,6-dihydropyrimidin-5-yl)acetamido]-6-phenoxypyridin-2-yl)formamido)pentanedioic acid] |  |  | 
12 | 5 | 20 | Nc1nc(N)c(NC(=O)Nc2cnc(C(=O)N[C@@H](Cc3ccccc3)C(=O)O)c(F)c2)c(=O)[nH]1 [Example 35, (2S)-2-[(5-{[(2,4-diamino-6-oxo-1,6-dihydropyrimidin-5-yl)carbamoyl]amino}-3-fluoropyridin-2-yl)formamido]-3-phenylpropanoic acid] |  |  | 
13 | 15 | 93 | Nc1nc(N)c(NC(=O)Nc2cnc(C(=O)N[C@@H](CCC(=O)O)C(=O)O)c(Cl)c2)c(=O)[nH]1 [Example 5, (2S)-2-[(3-chloro-5-{[(2,4-diamino-6-oxo-1,6-dihydropyrimidin-5 yl)carbamoyl]amino}pyridin-2-yl)formamido]pentanedioic acid] |  |  | 
14 | 3 | 2 | Nc1nc(N)c(NC(=O)Nc2cnc(C(=O)N[C@@H](CCc3nnn[nH]3)C(=O)O)c(F)c2)c(=O)[nH]1 [Example 24, (2S)-2-[(5-{[(2,4-diamino-6-oxo-1,6-dihydropyrimidin-5-yl)carbamoyl]amino}-3-fluoropyridin-2-yl)formamido]-4-(1H-1,2,3,4-tetrazol-5-yl)butanoic acid] |  |  | 
15 | 12 | 24 | Nc1nc(N)c(NC(=O)Nc2ccc(C(=O)N[C@@H](CCc3nnn[nH]3)C(=O)O)nc2)c(=O)[nH]1 [Example 4, (2S)-2-[(5-{[(2,4-diamino-6-oxo-1,6-dihydropyrimidin-5-yl)carbamoyl]amino}pyridin-2-yl)formamido]-4-(1H-1,2,3,4-tetrazol-5-yl)butanoic acid] |  |  | 
16 | 24 | 75 | Nc1nc(N)c(NC(=O)Nc2ccc(C(=O)N[C@@H](CCC(=O)O)C(=O)O)nc2)c(=O)[nH]1 [Example 1, (2S)-2-[(5-{[(2,4-diamino-6-oxo-1,6-dihydropyrimidin-5-yl)carbamoyl]amino}pyridin-2-yl)formamido]pentanedioic acid; trifluoroacetic acid] |  |  | 
